The values below come from patent US9433621B2, “Substituted pyridine and pyrimidine derivatives and their use in treating viral infections” (Merck Sharp & Dohme Corp., priority 2010, dated 2016).

For the experiment, the system named is HCV replicon. In words: Cell-Based HCV Replicon Assay. The note with it: Hepatitis C virus. The procedure, abridged:
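Replicon cells, 5000/well, treated 3 days with 10 serial 2-fold dilutions (top 25 μM to 1 μM) in 0.5% DMSO, 10% FBS. Replicon RNA measured by multiplex Taqman RT-PCR (NS5B amplicon, GAPDH control); EC50/EC90 = concentration giving ΔCT of 1/3.2 over baseline from sigmoid fit.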
On the technique in general: In antiviral work, replicon cells carry a viral genome segment that copies itself.

The mark [1] stands for this setting: 72 h, Table V, class codes, replicon cells, day 3, real time PCR, EC90 = concentration for ΔCT=3.2 over baseline, read-out: EC90 (uM) range.
[2] abbreviates: HCV Replicon assay, EC90 range, Table VI, read-out: EC90.
Setting [3] is: 72 h, Table IV, replicon cells, day 3, real time PCR, EC90 = concentration for ΔCT=3.2 over baseline, read-out: EC90.

For orientation: EC90 means the point of the concentration-response curve where the effect stands at 90%.

SMILES strings stand for the structures. Like-named read-outs stand apart in the source and are kept apart here.

`CO[C@H](C)CNc1ncc(-c2nc3c(C)nccc3s2)c(N[C@@H]2C[C@H](C(C)(C)O)[C@@H](O)[C@H]2O)n1` [Example 4939]: the EC90 under setting [1] is under 0.5 µM. `COC[C@@H](C)Nc1nc(C)c(-c2nc3c(C)nccc3s2)c(N[C@@H]2C[C@H](C(C)(C)NC(=O)OC)[C@@H](O)[C@H]2O)n1` [Example 5040]: under setting [2], the EC90 was under 0.5 µM. As for `Cc1nccc2sc(-c3cnc(NCC4CC4)nc3N[C@@H]3C[C@H](C(C)(C)O)[C@@H](O)[C@H]3O)nc12` [Example 4935], the EC90 under setting [1] is under 0.5 µM. With `Cc1cc2sc(-c3c(C)nc(NCc4c(F)cc(F)cc4F)nc3N[C@@H]3C[C@H](CO)[C@@H](O)[C@H]3O)nc2c(C)n1` [Example 3438], the EC90 under setting [3] was determined as 0.011 µM. For the molecule `Cc1nc(NC(C)CCCC(C)(C)O)nc(N[C@@H]2C[C@H](C(C)(C)O)[C@@H](O)[C@H]2O)c1-c1nc2c(C)nccc2s1` (stereo partly shown) [Example 5163], the EC90 under setting [2] was under 0.5 µM. Still for that read-out and setting: next, `C#CCCNc1nc(C)c(-c2nc3c(C4CC4)nccc3s2)c(N[C@@H]2C[C@H](CS(C)(=O)=O)[C@@H](O)[C@H]2O)n1` [Example 5015]: under 0.5 µM.

`Cc1nc(N)nc(N[C@@H]2C[C@H](C(=O)Nc3ccccc3)[C@@H](O)[C@H]2O)c1-c1nc2c(C3CC3)nccc2s1` [Example 4948]: the EC90 under setting [1] was under 0.5 µM. The same measure, in the same setting: next, `Cc1cc2sc(-c3c(C)nc(NCc4c(F)cccc4F)nc3N[C@@H]3C[C@H](CO)[C@@H](O)[C@H]3O)nc2cn1` [Example 4908]: under 0.5 µM. For the molecule `CS(=O)(=O)C[C@H]1C[C@@H](Nc2nc(NC3CCC3)ncc2-c2nc3c(C4CC4)nccc3s2)[C@H](O)[C@@H]1O` [Example 4922], the EC90 (72 h, Table V, cells printed as numeric bound instead of code, replicon cells, day 3, real time PCR, read-out: EC90 (uM) range) was over 0.3 µM. Regarding `Cc1nc(N)nc(NC2(CO)CCCC2)c1-c1nc2c(C3CC3)nccc2s1` [Example 5124], the EC90 under setting [2] is under 0.5 µM. Same read-out and setting: as for `CCCNc1nc(C)c(-c2nc3c(C4CC4)nccc3s2)c(N[C@@H]2C[C@H](C(F)F)[C@@H](O)[C@H]2O)n1` [Example 5179], the figure is under 0.5 µM; as for `Cc1nc(NCC2CCC2)nc(N[C@@H]2C[C@H](NC(=O)NC(C)(C)C)[C@@H](O)[C@H]2O)c1-c1nc2c(C3CC3)nccc2s1` [Example 5100], under 0.5 µM; as for `Cc1nc(NCC(F)(F)C(F)(F)F)nc(N[C@H]2C=C[C@@H](CO)C2)c1-c1nc2c(C)nccc2s1` [Example 5165], under 0.5 µM. Same read-out and setting: as for `CCS(=O)(=O)C(C)(C)[C@H]1C[C@@H](Nc2nc(NCC3CC3)nc(C)c2-c2nc3c(C4CC4)nccc3s2)[C@H](O)[C@@H]1O` [Example 5059], the figure is under 0.5 µM.

With `CCO[C@H]1C[C@H](CNc2nc(C)c(-c3nc4c(C)nccc4s3)c(N[C@@H]3C[C@H](C4(O)CCCC4)[C@@H](O)[C@H]3O)n2)C1` [Example 5112], the EC90 under setting [2] is under 0.5 µM. For the molecule `COCC1(Nc2nc(NCC3CC3)nc(C)c2-c2nc3c(C)nccc3s2)CCCCC1` [Example 5201], the concentration for an effect of 90% (EC90) under setting [2] is under 0.5 µM.

As to `COCCNc1nc(C)c(-c2nc3c(C)nccc3s2)c(N2C[C@H]3C[C@@H]2[C@H](O)[C@@H]3O)n1` [Example 5214], where the note is “HCV Replicon assay, EC90 given as numeric bound, Table VI, read-out: EC90”, the EC90 was over 1 µM. As to `CCSCCNc1nc(C)c(-c2nc3c(C)nccc3s2)c(N[C@@H]2C[C@H](C(C)(C)OC)[C@@H](O)[C@H]2O)n1` [Example 5278], the EC90 under setting [2] is under 0.5 µM. Still for that read-out and setting: next, `Cc1nc(NCc2c(F)cc(F)cc2F)nc(N[C@@H]2C[C@H](C3(O)CC3)[C@@H](O)[C@H]2O)c1-c1nc2c(C)nccc2s1` [Example 5236]: under 0.5 µM; `Cc1nc(NCC2CC2)nc(N[C@@H]2C[C@H](NC(=O)N(C)C)[C@@H](O)[C@H]2O)c1-c1nc2c(C3CC3)nccc2s1` [Example 5098]: under 0.5 µM. The same measure, in the same setting: as for `CCS(=O)(=O)C(C)(C)[C@H]1C[C@@H](Nc2nc(NCc3c(F)cc(F)cc3F)nc(C)c2-c2nc3c(C4CC4)nccc3s2)[C@H](O)[C@@H]1O` [Example 5061], the figure is under 0.5 µM; as for `Cc1cc(S(=O)(=O)C[C@H]2C[C@@H](Nc3nc(NCC4CC4)nc(C)c3-c3nc4c(C)nccc4s3)[C@H](O)[C@@H]2O)ccc1F` [Example 5008], under 0.5 µM; as for `Cc1nc(NCC(F)(F)C(F)(F)F)nc(NC2(CO)CC2)c1-c1nc2c(C)nccc2s1` [Example 5134], under 0.5 µM. As for `Cc1nc(NC(C)C2CC(F)(F)C2)nc(N[C@@H]2C[C@H](CO)[C@@H](O)[C@H]2O)c1-c1nc2c(C)nccc2s1` (stereo partly shown) [Example 5291], the EC90 under setting [2] is under 0.5 µM. On the same count and under the same terms, as for `Cc1nc(N)nc(N[C@@H]2C[C@H](C(F)F)[C@@H](O)[C@H]2O)c1-c1nc2c(C3CC3)nccc2s1` [Example 5190], the figure is under 0.5 µM; as for `CO[C@@H](CNc1nc(C)c(-c2nc3c(C)nccc3s2)c(N[C@@H]2C[C@H](C(C)(C)O)[C@@H](O)[C@H]2O)n1)c1ccc(F)cc1` [Example 5229], under 0.5 µM. The same measure, in the same setting: next, `CCNC(=O)N[C@H]1C[C@@H](Nc2nc(NCC3CC3)nc(C)c2-c2nc3c(C4CC4)nccc3s2)[C@H](O)[C@@H]1O` [Example 5087]: under 0.5 µM; `Cc1nc(N)nc(N[C@@H]2C[C@H](CC(C)(C)O)[C@@H](O)[C@H]2O)c1-c1nc2c(C)nccc2s1` [Example 5304]: under 0.5 µM; `Cc1nc(N[C@@H](CO)CC(C)C)nc(N[C@@H]2C[C@H](C(C)(C)O)[C@@H](O)[C@H]2O)c1-c1nc2c(C)nccc2s1` [Example 5162]: under 0.5 µM. Consider `Cc1nc(NCC2CC2)nc(N[C@@H]2C[C@H](CS(=O)(=O)c3ccccc3)[C@@H](O)[C@H]2O)c1-c1nc2c(C3CC3)nccc2s1` [Example 3744], for which, under setting [3], the EC90 is 0.044 µM.

In the case of `Cc1nc(NCC(F)(F)C(F)(F)C(F)(F)F)nc(N[C@@H]2C[C@H](C3(O)CCCC3)[C@@H](O)[C@H]2O)c1-c1nc2c(C)nccc2s1` [Example 5113], the 90% effect concentration (EC90) under setting [2] lay in the range of 5 to 25 µM. As for `COCCNc1nc(C)c(-c2nc3c(C)nccc3s2)c(N[C@@H]2C[C@H]([C@H](O)C(C)C)[C@@H](O)[C@H]2O)n1` [Example 5105], under setting [2], the EC90 was under 0.5 µM.

In the case of `COC1(CNc2nc(C)c(-c3nc4c(C)nccc4s3)c(N[C@@H]3C[C@H](C(C)(C)O)[C@@H](O)[C@H]3O)n2)CCCCC1` [Example 5195], under setting [2], the EC90 is under 0.5 µM.

Turning to `CCC(O)(CC)[C@H]1C[C@@H](Nc2nc(NCC3(C)CC3)nc(C)c2-c2nc3c(C)nccc3s2)[C@H](O)[C@@H]1O` [Example 5270], the EC90 under setting [2] is under 0.5 µM. Still for that read-out and setting: as for `CO[C@H]1C[C@H]([C@@H](C)Nc2nc(C)c(-c3nc4c(C)nccc4s3)c(N[C@@H]3C[C@H](CO)[C@@H](O)[C@H]3O)n2)C1` [Example 5302], the figure is under 0.5 µM; as for `Cc1nc(N[C@H](C)c2c(F)c(F)c(C)c(F)c2F)nc(N[C@@H]2C[C@H](C(C)(C)O)[C@@H](O)[C@H]2O)c1-c1nc2c(C)nccc2s1` [Example 5204], under 0.5 µM. On the same count and under the same terms, as for `COCCNc1nc(C)c(-c2nc3c(C)nccc3s2)c(N[C@@H]2C[C@H](C(C)(C)NC(=O)OC)[C@@H](O)[C@H]2O)n1` [Example 5042], the figure is under 0.5 µM; as for `Cc1nc(N)nc(N[C@@H]2C[C@H]([C@@H](O)C(C)C)[C@@H](O)[C@H]2O)c1-c1nc2c(C)nccc2s1` [Example 5125], under 0.5 µM; as for `Cc1nc(N)nc(N[C@@H]2C[C@H](C(C)(C)S(C)(=O)=O)[C@@H](O)[C@H]2O)c1-c1nc2c(C)nccc2s1` [Example 5069], under 0.5 µM.

On to `COc1ccc(S(=O)(=O)C[C@H]2C[C@@H](Nc3nc(NCC4CC4)nc(C)c3-c3nc4c(C)nccc4s3)[C@H](O)[C@@H]2O)cc1F` [Example 5013], for which, under setting [2], the EC90 is under 0.5 µM.
